Results reported in patent US20250134667A1, “BIOABSORBABLE AND PHOTOCURABLE COMPOSITION, BIOABSORBABLE GUIDED TISSUE REGENERATION COMPOSITION, AND GRAFTING METHOD USING SAME” (priority 2022, published 2025).
Peptide text beside a SMILES is read from it.

How the values were obtained:
pNFκB = assay: Western blot of pNFkB in Raw264.7 cells; type: cell-based, mouse; details: only the peptide, no LPS
Procedure: (§1) Raw264.7 cells were purchased from ATCC (American Type Culture Collection) and used in the experiment. Raw264.7 cells were cultured in a CO2 incubator at 37° C. supplied with 5% CO2 and 95% air using DMEM (Dulbecco's modified Eagle medium) medium supplemented with 10% FBS and 100 units/ml antibiotics (penicillin-streptomycin).
[…] After 8 hours, the treated cells were collected, protease inhibitor cocktail and phosphatase inhibitor cocktail were added to Radioimmunoprecipitation assay buffer (RIPA buffer solution, Thermo Fisher, 89900), and the cells were treated to lyse the cells. After centrifuging the cell lysate and collecting the supernatant, the concentration of the cell lysate was measured using a bicinchoninic acid assay (BCA assay, Thermo Fisher, 23227), and RIPA buffer solution was added thereto to prepare the cell lysate to a final concentration of 5 mg/mL. Then, it was mixed with a buffer solution including 1 M Tris-HCl (pH 6.8), 50% glycerol, and 10% SDS in a 4:1 ratio, and then sodium dodecyl sulfate-poly acrylamide gel electrophoresis (SDS-PAGE) was performed. […]

[1] = system: gingival tissue of a rabbit; assay: Tissue penetration ability in animal tissue, rabbit; type: in vivo; details: living rabbit
Procedure: (§2) The amine group of the peptide having the amino acid of SEQ ID NO: 1 was labeled with fluorescence using Alexa Fluor™ 680 NHS Ester (Thermo Fisher, A20008). The fluorescent labeling method followed the method provided by the manufacturer. The fluorescently labeled peptide was dissolved in water for injection at a concentration of 250 mg/ml, and 10 μL was injected into the gingival sulcus of the premolars of an adult dog (beagle dog) and the anterior gingival sulcus of a rabbit. After 2 hours, to check the permeability of the peptide in the tissue, the animal was sacrificed, the gingival tissue was collected, and tissues were embedded using Tissue-Tek® O.C.T. Compound (Sakura Finetek, 4583). After sectioning the embedded tissue at 10 μm thickness, fluorescently labeled peptides were confirmed using a confocal scanning fluorescence microscope. The nuclei of tissue cells were stained using DAPI.

Raw264.7 cells = assay: Cell penetration ability at the cellular level (confocal microscopy); type: cell-based, mouse; details: 50, 100, 200 μM, 1 hour
Procedure: The N-terminus of the peptide having the amino acid of SEQ ID NO: 1 prepared in Example 1 was fluorescently labeled with Rhodamine B (Tokyo chemical industry Co., LTD., A5102). Raw264.7 cells were distributed 3×10^4 each into a 4-well chamber and cultured in DMEM medium for 24 hours to stabilize the cells. After 24 hours, fluorescently labeled peptide was added to the medium at concentrations of 50, 100, and 200 μM. After 1 hour of peptide treatment, a degree of penetration of the peptide into cells was observed using a confocal scanning fluorescence microscope […]. Cell nuclei were stained using 4′,6-diamidino-2-phenylindole (DAPI, Thermo Fisher, D1306). DIC represents the case observed under a general microscope, Nuceli represents the nucleus of a cell, Peptide represents the degree of penetration of a peptide bound to rhodamine B, and MERGE represents an image that overlaps images of DIC, Nuclei, and the penetrated peptide.

plkBa = assay: Western blot of plkBa in Raw264.7 cells; type: cell-based, mouse; details: only the peptide, no LPS
Procedure: as §1
Raw264.7 cells were treated with 200 μM of the peptide having the amino acid sequence of SEQ ID NO: 1 for 30 minutes, and then treated with 1 μg/ml LPS (lipopolysaccharide, Merck, L3024). After 8 hours, the treated cells were collected, protease inhibitor cocktail and phosphatase inhibitor cocktail were added to Radioimmunoprecipitation assay buffer (RIPA buffer solution, Thermo Fisher, 89900), and the cells were treated to lyse the cells. After centrifuging the cell lysate and collecting the supernatant, the concentration of the cell lysate was measured using a bicinchoninic acid assay (BCA assay, Thermo Fisher, 23227), and RIPA buffer solution was added thereto to prepare the cell lysate to a final concentration of 5 mg/mL. Then, it was mixed with a buffer solution including 1 M Tris-HCl (pH 6.8), 50% glycerol, and 10% SDS in a 4:1 ratio, and then sodium dodecyl sulfate-poly acrylamide gel electrophoresis (SDS-PAGE) was performed. […]

[2] = system: gingival tissue of an adult dog; assay: Tissue penetration ability in animal tissue, adult dog; type: in vivo, adult dog (beagle dog)
Procedure: as §2

`C[C@@H](O)[C@H](NC(=O)[C@H](CO)NC(=O)[C@H](CS)NC(=O)[C@H](CCCCN)NC(=O)CN)C(=O)N[C@@H](CCCNC(=N)N)C(=O)NCC(=O)N[C@@H](CCCNC(=N)N)C(=O)N[C@@H](CCCCN)C(=O)N[C@@H](CO)C(=O)N[C@@H](CO)C(=O)N[C@@H](CCCNC(=N)N)C(=O)N[C@@H](CCCNC(=N)N)C(=O)N[C@@H](CCCCN)C(=O)N[C@@H](CCCCN)C(N)=O` [SEQ ID NO: 1, GKCSTRGRKSSRRKK] (H-GKCSTRGRKSSRRKK-NH2; N-terminus and C-terminus assumed) was tested, and the “expression of pNFκB, peptide only” value (pNFκB) was “no effect”, the “penetration into gingival tissue (in words)” value [1] was “penetrated” and the “concentration dependence of intracellular fluorescence” value (Raw264.7 cells) was “as the concentration of peptide increased, the intensity of fluorescence also increased”. The “expression of plkBa, peptide only” value (plkBa) was “no effect” and the “penetration into gingival tissue (in words)” value [2] was “penetrated”.
